Columns and labels:
Type in all cases: in vivo
[1] = system: Foxtail, Giant (giant foxtail, Setaria faberi); assay: Test A1 preemergence, Foxtail, Giant
Method in brief: (§1)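 Plants grown in pots of loam/sand mix; preemergence = soil-directed spray on seeded pots, postemergence = spray at 1–2 leaves, height 2–10 cm; test chemicals formulated in non-phytotoxic solvent with surfactant.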

[2] = system: goosegrass (Eleusine indica); assay: Test A1 preemergence, goosegrass
Method in brief: as §1

[3] = system: Ryegrass, Italian (Italian ryegrass, Lolium multiflorum); assay: Test A1 preemergence, Ryegrass, Italian
Method in brief: as §1

[4] = system: ragweed (common ragweed, Ambrosia artemisiifolia); assay: Test A1 postemergence, ragweed; details: for Ragweed plant response rating: 31 g ai/ha, postemergence; for Plant response rating, Ragweed: Postemergence, 125 g ai/ha
Method in brief: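 Plants were grown in a loam soil/sand blend, with test chemicals formulated in a non-phytotoxic solvent mixture containing surfactant. Preemergence treatment (corn) was a directed soil spray at planting. Postemergence treatment was applied to plants 2 to 10 cm tall at the one- to two-leaf stage.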

[5] = 31 g ai/ha, 0 to 100 scale (0 no effect, 100 complete control)
[6] = 125 g ai/ha, 0 to 100 scale, 0 no effect, 100 complete control
[7] = 0 to 100 scale (0 no effect, 100 complete control)

Compound | Plant response rating, Foxtail, Giant [1, 5] | Plant response rating, Foxtail, Giant [1, 6] | Plant response rating, Goosegrass [2, 5] | Plant response rating, Goosegrass [2, 6] | Plant response rating, Ryegrass, Italian [3, 5] | Plant response rating, Ryegrass, Italian [3, 6] | Ragweed plant response rating [4, 7] | Plant response rating, Ragweed ([4]; 0 to 100 scale) | Plant response rating, Ragweed ([4]; 0 to 100 scale (0 no effect, 100 complete control), 10 days)
C#CCN(C)C(=O)c1cc(N(COC(=O)C(C)(C)C)S(=O)(=O)C(F)(F)F)c(C)c(C)c1C [Compound 371] | 10 | 100 | 0 | 90 | 0 | 80 | 40 | 70 | –
Cc1c(NS(=O)(=O)C(F)(F)F)cc(C(=O)N2CCC(C)CC2)c(C)c1C [Compound 366] | 100 | 100 | 10 | 80 | 0 | 40 | 40 | 80 | –
Cc1cc(C)c(C2=NOC(C(C)C)C2)cc1NS(=O)(=O)C(F)(F)F (stereo not drawn) [Compound 381] | 20 | 100 | 30 | 100 | 50 | 90 | 0 | – | 50

Source: patent publication US20230278972A1, “SUBSTITUTED HALOALKYL SULFONANILIDE HERBICIDES” (FMC Corporation, priority 2020, published 2023)
